IC50 and melting point data for four molecules are collected here from publication PMC6278366, “Synthesis and Evaluation of Anticancer Activities of Novel C-28 Guanidine-Functionalized Triterpene Acid Derivatives” (Molecules, 2018).

For data set [1], the system named is Jurkat (T-lymphoblastic leukemia) cells. The data set is described as follows: cells. Conditions: Homo sapiens, Jurkat, mean ± SE, at least three experiments in duplicate; viable cells; read-out: IC50 Jurkat. Type of data set: cell-based. As for the experimental part:
(§1) Cells (Jurkat, K562, U937, HeLa, HEK293 and normal Fibroblasts) were purchased from Russian Cell Culture Collection (Institute of Cytology of the Russian Academy of Sciences, Saint Petersburg, Russia) and cultured according to standard mammalian tissue culture protocols and sterile technique. Human cell lines HEK293 and HeLa were obtained from the HPA Culture Collections (Salisbury, UK). All cell lines used in the study were tested and shown to be free of mycoplasma and viral contamination.
(§2) Cells were maintained in RPMI 1640 (Jurkat, K562, U937) (Gibco, Thermo Fisher Scientific, Waltham, MA, USA) supplemented with 4 mM glutamine, 10% FBS (Sigma, Burlington, MA, USA) and 100 units/mL penicillin-streptomycin (Sigma). All types of cells were grown in an atmosphere of 5% CO2 at 37 °C. The cells were subcultures at 2–3 days intervals. Adherent cells (HEK293, HeLa, fibroblasts) were suspended using trypsin/EDTA and counted after they have reached 80% confluency. Cells were then seeded in 24 well plates at 5 × 10^4 cells per well and incubated overnight. Jurkat, K562, U937 cells were subcultured at 2 day intervals with a seeding density of 1 × 10^5 cells per 24 well plates in RPMI with 10% FBS.
(§3) Viability (Live/dead) assessment was performed by staining cells with 7-AAD (7-Aminoactinomycin D) (Biolegend, San Diego, CA, USA). Cells were treated of test compounds with six different concentrations (1, 5, 10, 15, 30 and 60 μM). After treatment, cells were harvested, washed 1–2 times with phosphate-buffered saline (PBS) and centrifuged at 400× g for 5 min. Cell pellets were resuspended in 200 μL of flow cytometry staining buffer (PBS without Ca^2+ and Mg^2+, 2.5% FBS) and stained with 5 μL of 7-AAD staining solutionfor 15 min at room temperature in the dark. Samples were acquired on NovoCyteTM 2000 FlowCytometry System (ACEA, San Diego, CA, USA) equipped with 488 nm argon laser. Detection of 7-AAD emission was collected through a 675/30 nm filter in FL4 channel.

Data set [2] deals with K562 (chronic myeloid leukemia) cells. The data set is described as follows: Cytotoxicity assay (7-AAD viability, flow cytometry), K562. Conditions: Homo sapiens, K562, mean ± SE, at least three experiments in duplicate; viable cells; read-out: IC50 K562. Type of data set: cell-based, human. On the procedure:
as §1, §2, §3

Data set [3] relates to U937 (histiocytic lymphoma) cells. As to the kind of experiment: Cytotoxicity assay (7-AAD viability, flow cytometry), U937. Type of data set: cell-based, human. Conditions: Homo sapiens, U-937, mean ± SE, at least three experiments in duplicate; viable cells; read-out: IC50 U937. As for the experimental part:
as §1, §2, §3
Background: A flow cytometer gives signals particle by particle.

Data set [4] has as its system HEK293 (embryonic kidney) cells. As to the kind of experiment: Cytotoxicity assay (7-AAD viability, flow cytometry), HEK293. Type of data set: cell-based, human. Conditions: Homo sapiens, HEK293, mean ± SE, at least three experiments in duplicate; viable cells. As for the experimental part:
as §1
(§4) HEK293, HeLa cell lines and fibroblasts were cultured as monolayers and maintained in Dulbecco’s modified Eagle’s medium (DMEM, Gibco BRL, Waltham, MA, USA) supplemented with 10% foetal bovine serum and 1% penicillin-streptomycin solution at 37 °C in a humidified incubator under a 5% CO2 atmosphere.
as §2, §3

In data set [5] the test system is HeLa (cervical cancer) cells. As to the kind of experiment: Cytotoxicity assay (7-AAD viability, flow cytometry), HeLa. Type of data set: cell-based, human. Conditions: Homo sapiens, HeLa, mean ± SE, at least three experiments in duplicate; viable cells. As for the experimental part:
as §1, §4, §2, §3

For another data set, the system named is normal human fibroblasts. As to the kind of experiment: Cytotoxicity assay (7-AAD viability, flow cytometry), normal fibroblasts. Type of data set: cell-based. Conditions: Homo sapiens, Fibroblast, mean ± SE, at least three experiments in duplicate. On the procedure:
as §1, §4, §2
as §3, with “Cells were treated of test compounds with six different concentrations (1, 5, 10, 15, 30 and 60 μM).” left out

Usually IC50 stands for the concentration at which inhibition is half-maximal. One may read the melting point as the temperature, or range, at which the solid turns liquid. Regarding `CC(=O)O[C@H]1CC[C@@]2(C)C(CC[C@]3(C)C2CCC2C4C(C(C)C)CC[C@]4(C(=O)NCCN)CC[C@]23C)C1(C)C` (stereo partly drawn) [Compound 5, 3β-N-(2-Aminoethyl)-3-O-acetyl-lupane-28-amide], the melting point lay in the range of 120 to 122 °C. The IC50 in data set [1] stood at 2.3 ± 0.11 µM. Besides, the IC50 in data set [2] stood at 2.8 ± 0.23 µM. In addition, the IC50 in data set [3] was 1.9 ± 0.34 µM. In addition, the IC50 in data set [4] came to 4.8 ± 0.25 µM. The IC50 in data set [5] is 3.9 ± 0.41 µM. For the same molecule, the half-maximal inhibitory concentration (IC50) with normal human fibroblasts was found to be 5.3 ± 0.27 µM.

Take `CC(=O)O[C@H]1CC[C@@]2(C)C(CC[C@]3(C)C2CCC2C4C(C(C)C)CC[C@]4(C(=O)NCCCN4CCN(CCCN)CC4)CC[C@]23C)C1(C)C` (stereo partly drawn) [Compound 8a, 3β-N-{[3-(3-Aminopropyl)piperazinyl]propyl}-3-O-acetyl-lupane-28-amide]: the melting point was in the range of 119 to 121 °C. In data set [1], the IC50 was found to be 4.5 ± 0.29 µM. For the same molecule, the half-inhibitory concentration (IC50) in data set [2] came to 3 ± 0.19 µM. Further, in data set [3], the IC50 was found to be 8.2 ± 0.13 µM. In data set [4], this molecule returned an IC50 of 5.9 ± 0.14 µM. Besides, 6.1 ± 0.38 µM corresponded to half-maximal inhibition in data set [5] (IC50). The IC50 in the data set on normal human fibroblasts is 7.3 ± 0.43 µM.

For the molecule `CC(C)C1CC[C@]2(C(=O)NCCCCN)CC[C@]3(C)C(CCC4[C@@]5(C)CCC(=O)C(C)(C)C5CC[C@]43C)C12` (stereo partly shown) [Compound 4, N-(4-Aminobuthyl)-3-oxolupane-28-amide], the melting point lay in the range of 170 to 172 °C. Moreover, the IC50 in data set [1] stood at 1.4 ± 0.41 µM. In addition, in data set [2], the IC50 worked out at 1.3 ± 0.49 µM. For the same molecule, the IC50 in data set [3] turned out to be 1.7 ± 0.36 µM. Moreover, the midpoint of inhibition in data set [4], the IC50, lay at 2.4 ± 0.35 µM. In data set [5], it took 2.8 ± 0.28 µM to reach half-maximal inhibition (IC50). This molecule also yielded an IC50 in the data set with normal human fibroblasts of 3.4 ± 0.19 µM.

Molecule `CC(=O)O[C@H]1CC[C@@]2(C)C(CC[C@]3(C)C2CCC2C4C(C(C)C)CC[C@]4(C(=O)NCCCCN)CC[C@]23C)C1(C)C` (stereo partly drawn) [Compound 6, 3β-N-(4-Aminobuthyl)-3-O-acetyl-lupane-28-amide] showed a melting point of 104 to 106 °C. In data set [1], the IC50 was 7.7 ± 0.31 µM. Also, the IC50 in data set [2] was determined as 1.8 ± 0.12 µM. Besides, in data set [3], the IC50 turned out to be 4.5 ± 0.43 µM. The same molecule yielded an IC50 in data set [4] of 6.7 ± 0.21 µM. The molecule further yielded a concentration for half-maximal inhibition (IC50) in data set [5] of 7.1 ± 0.18 µM. This molecule yielded an IC50 with normal human fibroblasts of 8.3 ± 0.29 µM.
